Assay results taken from PubChem BioAssay AID652275 (Broad Institute, 2013).
Results filed as inconclusive are left out. The source made the active and inactive calls. How the calls were made is not given here.

Test system: not listed separately
Assay: T. cruzi growth inhibition in host cells, dose response, cell-based, plate reader, dry powder, set 2 (AID 652275)
Conditions: T. cruzi proliferation in host cells, plate reader; at 16 µM (top of the series)

| Compound | activity change, negative = inhibition |
| --- | --- |
| CN(C)CC#Cc1cccc(-c2nc(C(=O)N3CCN(C)CC3)cc3c2[C@@H](CCO)N(S(=O)C(C)(C)C)C3)c1 (stereo partly specified) | -4.18% (inactive) |
| CC(C)N1C[C@@H](C)[C@H](CN(C)Cc2ccc(OCCCC(F)(F)C(F)(F)C(F)(F)C(F)(F)C(F)(F)C(F)(F)C(F)(F)C(F)(F)F)cc2)Oc2c(NC(=O)c3ccncc3)cccc2C1=O | 33.7% (inactive) |
| C[C@@H]1CN([C@@H](C)CO)C(=O)c2cccc(NC(=O)c3ccncc3)c2O[C@H]1CN(C)C | 18.7% (inactive) |
| COCCNC(=O)c1cc2c(c(-c3cccc(C#CCN(C)C)c3)n1)[C@H](CCO)N(S(=O)C(C)(C)C)C2 (stereo partly specified) | -35.9% (inactive) |
| CC(C)N1C[C@@H](CN)Oc2c(NC(=O)c3ccncc3)cccc2C1=O | -29% (inactive) |
| CC(C)N1C[C@@H](C)[C@H](CN(C)Cc2ccc(Oc3ccccc3)cc2)Oc2c(C(=O)O)cccc2C1=O | -33.8% (inactive) |
| CN(C)CC#Cc1cccc(-c2nc(C(=O)N3CCN(C)CC3)cc3c2[C@H](CCO)N(S(=O)C(C)(C)C)C3)c1 (stereo partly specified) | 1.54% (inactive) |
| C[C@@H](CO)N1CC[C@H](CNC(=O)OC(C)(C)C)Oc2c(cccc2[N+](=O)[O-])C1=O | -13.9% (inactive) |
| CN(C)CC#Cc1cccc(-c2nc(C(=O)O)cc3c2[C@H](CCO)N(S(=O)C(C)(C)C)C3)c1 (stereo partly specified) | -23.9% (inactive) |
| CC(C)N1C[C@@H](C)[C@H](CN(C)C(=O)OC(C)(C)C)Oc2c(C#N)cccc2C1=O | -37% (inactive) |

Test system: T. cruzi proliferation in host cells, plate reader
Assay: as above
Conditions: not given

| Compound | AC50 |
| --- | --- |
| C[C@@H]1CN([C@@H](C)CO)C(=O)c2cccc(NC(=O)c3ccncc3)c2O[C@H]1CN(C)Cc1ccc(Oc2ccccc2)cc1 | 1.11 nM |
